Patent US7060678B2, “Peptides comprising furanoid sugar amino acids for the treatment of cancer” (Dabur Research Foundation, priority 2003, dated 2006)
Read-outs that look alike come from different tables or passages of the source. Starred links: 1 amine or outer side, 2 acyl side, 3 side chain; linkers in the order of their positions; H or OH if unused. Non-standard residues stand in square brackets, D forms with d. Residues, ends and D or L forms follow the SMILES beside them. 2Furoyl(5-aminomethyl) = O=C(c1ccc(CN[*:1])o1)[*:2]; X2 = O=C([C@@H]1CC[C@H](CN[*:1])O1)[*:2]; X1 = O=C(C1CCC(CN[*:1])O1)[*:2]

Experiments:
ECV-304 (endothelial) = conditions: ECV-304 cells, 48 hours, NA = Not Active
From the text: Although sterile phosphate buffered saline was used to prepare each stock solution for the testing described in the following example, other diluents may be used such as buffered saline, isotonic NaCl, Ringer's solution, water, distilled water, polyethylene glycol (neat or in water), Tween in water, dimethylsulfoxide up to 50% in water, propylene glycol (neat or in water), phosphate buffered saline, balanced salt solution, glycerol, and other conventional fluids that are suitable for parentral administration. To obtain a pH in the range of approximately 3.5 to 7.0, for each stock solution, the pH can be adjusted by using 1N HCl for lowering the pH or 1N NaOH for raising the pH, although other buffers such as citrate buffer, phosphate buffer and the like or other conventional agents for adjusting the pH can be used.
The MTT assay is based on the principle of uptake of MTT [3-[4,5-dimethylthiazol-2-yl]-2,5-diphenyl tetrazolium bromide], a tetrazolium salt, by the metabolically active cells where it is metabolized by active mitochondria into a blue colored formazan product which can be read spectrophotometrically. […] The formazan crystals formed inside the cells were dissolved with a detergent comprising of 10% Sodium dodecyl sulfate and 0.01 N HCl and optical density read on a multi-scan ELISA reader. The optical density was directly proportional to the number of proliferating and metabolically active cells. The following cell lines were used. PA1(human ovary), PTC (colon), HeP-2 (larynx), MiaPaCa.2 (human pancreas), KB (oral), ECV-304 (endothelial) and HeP-G2 (liver).

PA1 (human ovary) = assay: MTT cytotoxicity assay, PA1 cells; type: cell-based; conditions: 48 hours
From the text: (§1) The following cell lines were used.

HeP-2 (larynx) = assay: MTT cytotoxicity assay, HeP-2 cells; type: cell-based, human; conditions: human, 48 hours
From the text: as §1

[1] = system: MiaPaCa.2 (human pancreas); assay: MTT cytotoxicity assay, MiaPaCa.2 cells; type: cell-based; conditions: 48 hours
From the text: as §1

PTC (colon) = assay: MTT cytotoxicity assay, PTC cells; type: cell-based, human; conditions: human, 48 hours
From the text: as §1

KB (oral) = assay: MTT cytotoxicity assay, KB cells; type: cell-based, human; conditions: human, 48 hours
From the text: as §1

HeP-G2 (liver) = assay: MTT cytotoxicity assay, HeP-G2 cells; type: cell-based, human; conditions: human, 48 hours
From the text: as §1

SMILES | Percent Cytotoxicity (ECV-304 (endothelial); peptide 1 nM) [%] | Percent Cytotoxicity (PA1 (human ovary); human, 1 nM) [%] | Percent Cytotoxicity (PA1 (human ovary); human, 10 nM) [%] | Percent Cytotoxicity (PA1 (human ovary); human, 100 nM) [%] | Percent Cytotoxicity (PA1 (human ovary); human, 1 μM) [%] | Percent Cytotoxicity (HeP-2 (larynx); 1 nM) [%] | Percent Cytotoxicity (HeP-2 (larynx); 10 nM) [%] | Percent Cytotoxicity (HeP-2 (larynx); 100 nM) [%] | Percent Cytotoxicity (HeP-2 (larynx); 1 μM) [%] | Percent Cytotoxicity ([1]; human, 1 nM) [%] | Percent Cytotoxicity ([1]; human, 10 nM) [%] | Percent Cytotoxicity ([1]; human, 100 nM) [%] | Percent Cytotoxicity (PTC (colon); 1 nM) [%] | Percent Cytotoxicity (PTC (colon); 10 nM) [%] | Percent Cytotoxicity (PTC (colon); 100 nM) [%] | Percent Cytotoxicity (PTC (colon); 1 μM) [%] | Percent Cytotoxicity (KB (oral); 1 nM) [%] | Percent Cytotoxicity (KB (oral); 10 nM) [%] | Percent Cytotoxicity (KB (oral); 100 nM) [%] | Percent Cytotoxicity (KB (oral); 1 μM) [%] | further results
CSCC[C@H](NC(=O)[C@@H](N)CC(C)C)C(=O)NCc1ccc(C(=O)N[C@@H](Cc2ccc(O)cc2)C(=O)N[C@@H](CC(C)C)C(=O)N[C@@H](CCCCN)C(=O)O)o1 [SEQ ID NO: 18, Leu-Met-Saa1-Tyr-Leu-Lys] (H-LM[2Furoyl(5-aminomethyl)]YLK-OH) | 11.0 ± 0.6 | 18.3 ± 1.8 | 22.8 ± 2.9 | 21.8 ± 2.1 | 20.3 ± 2.6 | 47.0 ± 4.8 | 38.3 ± 2.0 | 35.8 ± 2.4 | 32.9 ± 2.6 | 24.8 ± 2.0 | 21.0 ± 2.6 | 18.5 ± 0.6 | 19.0 ± 1.6 | 28.4 ± 1.0 | 23.9 ± 2.9 | 21.7 ± 1.5 | 15.9 ± 1.0 | 12.0 ± 0.3 | 14.0 ± 1.0 | 9.3 ± 0.4 | Percent Cytotoxicity ([1]; human, 1 μM): 15.0 ± 0.6%
CSCC[C@H](N)C(=O)NCc1ccc(C(=O)N[C@@H](Cc2ccc(O)cc2)C(=O)N[C@@H](CC(C)C)C(=O)O)o1 [SEQ ID NO: 14, Met-Saa1-Tyr-Leu] | 12.7 ± 0.4 |  |  |  |  | 11.0 ± 1.9 | 10.6 ± 1.1 | 6.0 ± 0.8 |  | 17.0 ± 1.7 | 13.9 ± 1.1 | 7.0 ± 0.3 | 28.9 ± 2.2 | 26.9 ± 2.9 | 21.8 ± 1.0 | 15.0 ± 0.5 | 14.5 ± 0.4 | 12.9 ± 0.5 |  |  | Percent Cytotoxicity (ECV-304 (endothelial); peptide 10 nM): 13.0 ± 0.6%; Percent Cytotoxicity (ECV-304 (endothelial); peptide 100 nM): 6.0 ± 0.0%
CSCC[C@H](NC(=O)[C@@H](N)CC(C)C)C(=O)N[C@@H](Cc1ccc(O)cc1)C(=O)NC[C@H]1CC[C@@H](C(=O)N[C@@H](Cc2ccc(O)cc2)C(=O)N[C@@H](CC(C)C)C(=O)N[C@@H](CCCCN)C(=O)O)O1 [SEQ ID NO: 13, Leu-Met-Tyr-Saa4-Tyr-Leu-Lys] (H-LMY[X2]YLK-OH) | 23.0 ± 1.6 | 44.0 ± 3.9 | 41.0 ± 4.2 | 38.0 ± 3.9 | 35.5 ± 2.4 | 23.0 ± 2.1 | 21.8 ± 1.8 | 17.9 ± 1.9 | 16.4 ± 0.6 | 17.5 ± 1.9 | 14.0 ± 0.6 | 8.0 ± 0.6 | 28.5 ± 2.0 | 26.0 ± 2.9 | 22.8 ± 2.1 | 20.8 ± 1.8 | 30.0 ± 2.8 | 27.9 ± 2.1 | 26.9 ± 2.1 | 21.4 ± 2.1 | Percent Cytotoxicity (ECV-304 (endothelial); peptide 10 nM): 21.0 ± 2.6%; Percent Cytotoxicity (ECV-304 (endothelial); peptide 100 nM): 18.0 ± 1.6%; Percent Cytotoxicity (ECV-304 (endothelial); peptide 1 μM): 12.1 ± 1.3%
CSCC[C@H](NC(=O)[C@@H](N)CC(C)C)C(=O)N[C@@H](Cc1ccc(O)cc1)C(=O)NC[C@H]1O[C@H](C(=O)N[C@H](C(=O)N[C@@H](Cc2ccc(O)cc2)C(=O)N[C@@H](CC(C)C)C(=O)N[C@@H](CCCCN)C(=O)O)[C@@H](C)O)[C@@H](OCc2ccccc2)[C@@H]1OCc1ccccc1 [SEQ ID NO: 3, Leu-Met-Tyr-Saa2-Thr-Tyr-Leu-Lys] |  | 16.8 ± 1.4 | 18.0 ± 1.8 | 12.5 ± 0.0 | 10.8 ± 0.6 | 12.6 ± 2.8 | 15.4 ± 1.3 | 13.9 ± 0.5 | 10.8 ± 0.5 | 21.8 ± 2.1 | 24.0 ± 2.7 | 17.9 ± 1.8 |  |  |  |  | 12.9 ± 1.3 | 17.7 ± 0.5 | 14.9 ± 1.1 | 9.5 ± 0.1 | Percent Cytotoxicity (HeP-G2 (liver); 1 nM): 12.3 ± 0.4%; Percent Cytotoxicity (HeP-G2 (liver); 10 nM): 10.7 ± 0.1%; Percent Cytotoxicity (HeP-G2 (liver); 100 nM): 9.5 ± 1.0%; Percent Cytotoxicity (HeP-G2 (liver); 1 μM): 6.9 ± 0.0%; Percent Cytotoxicity ([1]; human, 1 μM): 13.9 ± 0.4%
CSCC[C@H](NC(=O)[C@@H](N)CC(C)C)C(=O)N[C@@H](Cc1ccc(O)cc1)C(=O)NCc1ccc(C(=O)N[C@@H](Cc2ccc(O)cc2)C(=O)N[C@@H](CC(C)C)C(=O)N[C@@H](CCCCN)C(=O)O)o1 [SEQ ID NO: 10, Leu-Met-Tyr-Saa1-Tyr-Leu-Lys] (H-LMY[2Furoyl(5-aminomethyl)]YLK-OH) | 15.2 ± 1.0 | 37.5 ± 3.8 | 32.0 ± 2.9 | 31.0 ± 2.7 | 28.4 ± 2.2 | 35.4 ± 2.9 | 32.0 ± 2.1 | 31.8 ± 3.1 | 28.9 ± 2.1 | 14.9 ± 1.9 | 12.0 ± 1.7 | 9.0 ± 0.6 | 30.5 ± 3.2 | 28.0 ± 2.2 | 25.6 ± 2.2 | 21.8 ± 2.8 | 32.0 ± 2.5 | 31.9 ± 2.9 | 29.6 ± 0.7 | 26.0 ± 1.8 | Percent Cytotoxicity (ECV-304 (endothelial); peptide 10 nM): 12.9 ± 0.5%; Percent Cytotoxicity (ECV-304 (endothelial); peptide 100 nM): 9.4 ± 0.2%
CSCC[C@H](NC(=O)[C@@H](N)CC(C)C)C(=O)NCC1CCC(C(=O)N[C@H](C(=O)N[C@@H](Cc2ccc(O)cc2)C(=O)N[C@@H](CC(C)C)C(=O)N[C@@H](CCCCN)C(=O)O)[C@@H](C)O)O1 (stereo partly drawn) [SEQ ID NO: 8, Leu-Met-Saa3-Thr-Tyr-Leu-Lys] (H-LM[X1]TYLK-OH) | 15.3 ± 1.6 |  |  |  |  |  |  |  |  |  |  |  |  |  |  |  |  |  |  |  | Percent Cytotoxicity (ECV-304 (endothelial); peptide 10 nM): 12.7 ± 1.6%; Percent Cytotoxicity (ECV-304 (endothelial); peptide 100 nM): 10.8 ± 2.9%; Percent Cytotoxicity (ECV-304 (endothelial); peptide 1 μM): 7.9 ± 0.1%; Percent Cytotoxicity (PA1 (human ovary); PA1 cells, peptide 1 nM, NA = Not Active): 12.7 ± 1.9%; Percent Cytotoxicity (PA1 (human ovary); PA1 cells, peptide 10 nM, NA = Not Active): 18.0 ± 1.0%; Percent Cytotoxicity (PA1 (human ovary); PA1 cells, peptide 100 nM, NA = Not Active): 14.8 ± 1.9%; Percent Cytotoxicity (PA1 (human ovary); PA1 cells, peptide 1 μM, NA = Not Active): 9.6 ± 1.0%; Percent Cytotoxicity ([1]; MiaPaCa.2 cells, peptide 1 nM, NA = Not Active): 22.9 ± 2.2%; Percent Cytotoxicity ([1]; MiaPaCa.2 cells, peptide 10 nM, NA = Not Active): 25.5 ± 2.9%; Percent Cytotoxicity ([1]; MiaPaCa.2 cells, peptide 100 nM, NA = Not Active): 22.9 ± 2.6%; Percent Cytotoxicity ([1]; MiaPaCa.2 cells, peptide 1 μM, NA = Not Active): 19.0 ± 0.6%
